This note sets out measurements from PMC8348983 (International Journal of Molecular Sciences, 2021).

This assay has as its target T1, MAO-B (Homo sapiens, UniProt P27338).
T1 construct: purchased Merck, Germany
T1 sequence (P27338 1-520): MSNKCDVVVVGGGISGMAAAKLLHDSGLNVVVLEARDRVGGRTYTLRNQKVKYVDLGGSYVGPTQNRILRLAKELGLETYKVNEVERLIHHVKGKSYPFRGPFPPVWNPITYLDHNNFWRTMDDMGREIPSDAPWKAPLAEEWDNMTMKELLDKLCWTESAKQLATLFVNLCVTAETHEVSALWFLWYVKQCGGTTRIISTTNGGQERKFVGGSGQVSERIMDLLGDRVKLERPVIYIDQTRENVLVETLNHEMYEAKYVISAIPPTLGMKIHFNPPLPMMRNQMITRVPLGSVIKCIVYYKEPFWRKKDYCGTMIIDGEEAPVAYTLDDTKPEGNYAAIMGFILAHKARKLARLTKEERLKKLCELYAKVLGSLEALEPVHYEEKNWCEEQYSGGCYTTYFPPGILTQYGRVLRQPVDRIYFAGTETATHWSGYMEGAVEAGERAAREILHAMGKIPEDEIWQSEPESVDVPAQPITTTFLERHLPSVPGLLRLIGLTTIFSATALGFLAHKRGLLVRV
The experiment in a line: MAO-B inhibition assay. The class given is biochemical. Here is the method:
Since monoamine oxidase (MAO; EC 1.4.3.4) inhibitors are considered as neuroprotective agents, compound 6 was screened at two concentrations (1 and 10 µM) for its inhibition potential against both isoforms of human MAOs. […]; MAO inhibition assay was performed as previously described. Supplementary Materials provides details of this assay. […]
The reaction mixture contains 2.5mg/mL MAO -A or 6.25mg/mLMAO-B enzyme (Merck, Germany) and inhibitor in final concentrations of […] in 50 mM potassiumphosphate buffer with 20% (v/v) glycerol (pH 7.5). […] The sample was then centrifuged (16.500 g) for10 min.The deamination product of kynuramine formed during the enzymatic reaction 4-hydroxyquinoline (4-HQ) was determined by UHPLC-MS on a Zorbax RRHD Eclipse plus C18 column (2.1 mm x 50 mm, […]) (Agilent Technologies, USA), by using a 6470 Series Triple Quadrupole mass spectrometer (Agilent Technologies, USA) as detector with electrospray ionisation – positive ion mode. […]
0.1% formic acid in water; (B) 0.1% formic acid in acetonitrile. IC 50of individual compounds were determined by nonlinear regression usingGraphPad Prism 8.0 (GraphPad Software, USA).

Structures are written as SMILES.

Take `C=CCOc1ccc(CCN(CC=C)Cc2ccc(OC)c(OCc3ccccc3)c2)cc1` [Compound 6, N-allyl-N-(3-benzyloxy-4-methoxybenzyl)-2-(4-allyloxyphenyl)ethan-1-amine]: the IC50 – broadly, the concentration that gives 50% inhibition – was > 10 µM. In addition, the “residual activity of MAO-B” value (1 and 10 µM) was “higher than 68%”.
